Results reported in ChEMBL document CHEMBL4699580, “Drophiobiolins A and B, Bioactive Ophiobolan Sestertepenoids Produced by Dreschslera gigantea” (J Nat Prod, 2020).
Calls of active or inactive are those of the source. The calls are words filed in the database; no cut-off is given here.

What was measured:
Chenopodium album [1] = experiment: Phytotoxicity against Chenopodium album leaf assessed as diameter of necrosis at 10^-3 M by leaf-puncture assay; type: functional; settings: dose 0.001 M; 1000 µM
HeLa [2] = experiment: Cytotoxicity against human HeLa cells assessed as reduction in cell viability at 0.5 to 10 uM after 24 hrs by MTT assay relative to control; type: functional; settings: dose microM 0.5-10
Chenopodium album [3] = experiment: Phytotoxicity against Chenopodium album leaf assessed as diameter of necrosis at 10^-4 M by leaf-puncture assay; type: functional; settings: dose 0.0001 M; 100 µM
Digitaria sanguinalis [4] = experiment: Phytotoxicity against Digitaria sanguinalis leaf assessed as diameter of necrosis at 10^-4 M by leaf-puncture assay; type: functional; settings: dose 0.0001 M; 100 µM
A-431 = experiment: Cytotoxicity against human A-431 cells assessed as reduction in cell viability at 0.5 to 10 uM after 24 hrs by MTT assay relative to control; type: functional; settings: dose microM 0.5-10
Solanum lycopersicum [5] = experiment: Phytotoxicity against Lycopersicon esculentum leaf assessed as diameter of necrosis at 10^-3 M by leaf-puncture assay; type: functional; settings: dose 0.001 M; 1000 µM
Solanum lycopersicum [6] = experiment: Phytotoxicity against Lycopersicon esculentum leaf assessed as diameter of necrosis at 10^-4 M by leaf-puncture assay; type: functional; settings: dose 0.0001 M; 100 µM
HaCaT = experiment: Cytotoxicity against human HaCaT cells assessed as reduction in cell viability at 0.5 to 10 uM after 24 hrs by MTT assay relative to control; type: functional; settings: dose microM 0.5-10
Digitaria sanguinalis [7] = experiment: Phytotoxicity against Digitaria sanguinalis leaves assessed as diameter of necrosis at 10^-3 M by leaf-puncture assay; type: functional; settings: dose 0.001 M; 1000 µM
HeLa [8] = experiment: Cytotoxicity against human HeLa cells assessed as reduction in cell viability after 24 hrs by MTT assay; type: functional, cell-based
NCI-H1299 = experiment: Cytotoxicity against human NCI-H1299 cells assessed as reduction in cell viability at 0.5 to 10 uM after 24 hrs by MTT assay; type: functional, cell-based; settings: dose microM 0.5-10, time 24.0 hrs
RD = experiment: Cytotoxicity against human RD cells assessed as reduction in cell viability relative to control; type: functional
B16-F10 = experiment: Antiproliferative activity against mouse B16-F10 cells assessed as reduction in cell viability after 72 hrs by MTT assay; type: functional, cell-based; settings: B16-F10, 72 h

Row | Structure (SMILES) | Activity (Chenopodium album [1]) [mm] | Activity (HeLa [2]) | Activity (Chenopodium album [3]) [mm] | Activity (Digitaria sanguinalis [4]) [mm] | Activity (A-431) | Activity (Solanum lycopersicum [5]) [mm] | Activity (Solanum lycopersicum [6]) [mm] | Activity (HaCaT) | Activity (Digitaria sanguinalis [7]) [mm] | IC50 (HeLa [8]) [µM] | Activity (NCI-H1299) | Activity (RD) [%] | IC50 (B16-F10) [µM]
1 | CC1=CC(=O)[C@H]2/C(C=O)=C\C[C@@H]3[C@](C)(CC[C@]3(O)[C@@H](C)CCCC(C)(C)O)C[C@H]12 | 3 | <=50% | 0 | 2 | <=72% | 2 | 1 | <=63% | 3 | 10 | inactive |  | 
2 | CC(C)=C[C@H]1C[C@H](C)[C@]2(CC[C@]3(C)C[C@@H]4C(C)=CC(=O)/C4=C(\CO)C(=O)C[C@H]32)O1 | 3 | <=50% | 1 | 2 | <=72% | 2 | 2 | <=63% | 3 | 10 | inactive |  | 
3 | CC(C)=C[C@H]1C[C@H](C)[C@]2(CC[C@]3(C)C[C@H]4[C@H](C(=O)C[C@@]4(C)O)/C(C=O)=C\C[C@H]32)O1 [OPHIOBOLIN A] | 3 |  | 2 | 3 |  | 3 | 3 |  | 3 |  |  | 70 | 0.29
